In this assay the target is ROCK2 (human) (UniProt O75116). The experiment in a line: Inhibition of ROCK2 Kinase Activity.

Among the data in the Kinase Knowledgebase extract (Sharma et al. 2016) are IC50 values, retold here.

Chain of ROCK2 (human) (O75116 whole entry, looked up): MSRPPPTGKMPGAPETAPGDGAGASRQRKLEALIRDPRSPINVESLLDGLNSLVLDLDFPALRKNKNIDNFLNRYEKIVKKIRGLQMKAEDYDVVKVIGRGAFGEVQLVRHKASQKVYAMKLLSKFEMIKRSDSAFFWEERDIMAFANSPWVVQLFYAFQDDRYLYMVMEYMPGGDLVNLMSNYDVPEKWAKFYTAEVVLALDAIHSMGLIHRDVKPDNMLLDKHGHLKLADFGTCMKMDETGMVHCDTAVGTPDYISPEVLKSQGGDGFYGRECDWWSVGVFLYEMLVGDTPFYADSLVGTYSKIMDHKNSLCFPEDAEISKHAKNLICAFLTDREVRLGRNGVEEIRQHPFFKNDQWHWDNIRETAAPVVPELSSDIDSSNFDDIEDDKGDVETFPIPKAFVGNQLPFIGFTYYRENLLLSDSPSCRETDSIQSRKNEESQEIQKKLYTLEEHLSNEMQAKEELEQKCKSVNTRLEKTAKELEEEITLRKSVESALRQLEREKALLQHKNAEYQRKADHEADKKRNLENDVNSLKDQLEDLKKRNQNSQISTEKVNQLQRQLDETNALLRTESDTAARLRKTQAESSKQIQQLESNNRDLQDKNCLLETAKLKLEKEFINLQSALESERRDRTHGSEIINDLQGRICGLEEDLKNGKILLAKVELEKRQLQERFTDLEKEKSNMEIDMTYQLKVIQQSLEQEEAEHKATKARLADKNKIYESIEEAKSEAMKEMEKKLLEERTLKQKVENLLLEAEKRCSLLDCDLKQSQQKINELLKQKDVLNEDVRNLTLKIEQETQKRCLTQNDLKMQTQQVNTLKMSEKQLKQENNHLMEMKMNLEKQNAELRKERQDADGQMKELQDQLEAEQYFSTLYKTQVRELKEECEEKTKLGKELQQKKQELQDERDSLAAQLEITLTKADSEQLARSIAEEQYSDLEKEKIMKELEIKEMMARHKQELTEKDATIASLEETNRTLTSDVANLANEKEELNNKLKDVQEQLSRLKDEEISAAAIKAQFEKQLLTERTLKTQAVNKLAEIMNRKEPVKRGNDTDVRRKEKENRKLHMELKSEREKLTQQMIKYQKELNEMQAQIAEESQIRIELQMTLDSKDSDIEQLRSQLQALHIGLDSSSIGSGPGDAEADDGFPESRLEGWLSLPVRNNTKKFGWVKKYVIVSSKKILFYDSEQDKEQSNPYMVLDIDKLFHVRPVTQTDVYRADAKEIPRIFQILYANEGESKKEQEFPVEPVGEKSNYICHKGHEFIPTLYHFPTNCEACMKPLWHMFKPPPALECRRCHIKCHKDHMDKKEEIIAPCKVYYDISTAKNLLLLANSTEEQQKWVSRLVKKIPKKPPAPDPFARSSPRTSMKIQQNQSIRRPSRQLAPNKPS

Consider `O=C(NCc1nc(-c2ccncc2)n[nH]1)c1cccc(Oc2ccccc2)c1`, for which the IC50 is over 5 µM.
Then `O=C(NCc1nc(-c2c[nH]c3ncccc23)n[nH]1)c1ccc(F)cc1`, with over 5 µM; and `Cc1cccc(C(=O)NCc2nc(-c3ccncc3)c[nH]2)c1O`, with at most 5 µM; and `O=Cc1ccc(C(=O)NCc2nc(-c3c[nH]c4ncccc34)n[nH]2)cc1`, with over 5 µM.
The result for `Cc1ccc(F)cc1C(=O)NCc1nc(-c2c[nH]c3ncccc23)n[nH]1` reads over 5 µM; that for `CC(C)(C)OC(=O)N1CC(O)CC1C(=O)NCc1nc(-c2ccncc2)n[nH]1` (stereo not drawn), over 5 µM; that for `O=C(Cc1cccc(O)c1)NCc1nc(-c2ccncc2)n[nH]1`, over 5 µM.
The result for `O=C(NCc1nc(-c2c[nH]c3ncccc23)n[nH]1)c1cnc(O)c(Cl)c1` reads over 5 µM.
